Measured values from PMC12344693, “Human Milk Oligosaccharides Multivalently Presented on Defined Synthetic Neo-Glycoproteins Are Nanomolar Ligands of Tandem-Repeat Galectins” (Biomacromolecules, 2025).
Read-outs that look alike come from different tables or passages of the source.

How the values were obtained:
Assay in all cases: competitive ELISA, inhibition of galectin binding to immobilized asialofetuin
Gal-3 = Gal-3 (Homo sapiens, UniProt P17931)
Procedure: (§1) The inhibitory potential of the prepared glycan library and the respective multivalent neo-glycoproteins with Gal-1, -3, -4, -8, and -9 was evaluated using a competitive ELISA assay as described by Vašíček et al. Asialofetuin (ASF; 0.1 μM in PBS, 50 μL/well) was immobilized onto microtiter plates (Nunc Immuno Sorb, ThermoFisher Scientific, USA) overnight at 4 °C. Wells were subsequently washed three times with PBS containing 0.05%, v/v, Tween-20 (250 μL/wash). Each assay step was followed by a washing step to ensure the thorough removal of unbound reagents. Blocking was performed using 2%, w/v, BSA in PBS (250 μL/well) for 1 h at room temperature. Serial dilutions of the inhibitors prepared in EPBS buffer (PBS containing 2 mM EDTA) were incubated with a constant concentration of galectin (2.5 μM Gal-1, Gal-3, and Gal-4; 0.5 μM Gal-8 and Gal-9) for 2 h. […] Residual galectin bound to ASF was detected using the anti-His-tag antibody conjugated to horseradish peroxidase (Santa Cruz Biotechnology, 1:999 dilution in PBS). Detection was achieved by adding 50 μL of TMB One substrate solution (Kem-En-Tech, Denmark), which developed a blue color that turned yellow upon the addition of 50 μL of 3 M HCl. Absorbance at 450 nm was measured using a microplate reader (Sunrise, Tecan Group Ltd., Switzerland) reflecting the amount of galectin bound to the wells. Half-maximal inhibitory concentration (IC50) values were calculated by nonlinear regression (dose–response inhibition with variable slope) of sigmoidal curves using GraphPad Prism version 8.4.3 (GraphPad Software, USA).
(§2) Serially diluted ligands and NGPs were incubated with individual galectin species in the wells coated with asialofetuin (ASF). The remaining galectin bound to the immobilized ASF was detected using an anti-His6 antibody.

Gal-4 = biological target: T1, Gal-4 (Homo sapiens, UniProt P56470); settings: competitive ELISA vs immobilized ASF; 2.5 μM Gal-4; at least quadruplicate
T1 construct: Full-length recombinant human galectins (Gal-1, Gal-3, Gal-4, Gal-8, and Gal-9) for ELISA assays; made in house; host or cells: E. coli Rosetta 2(DE3)pLysS
T1 sequence (P56470 1-323): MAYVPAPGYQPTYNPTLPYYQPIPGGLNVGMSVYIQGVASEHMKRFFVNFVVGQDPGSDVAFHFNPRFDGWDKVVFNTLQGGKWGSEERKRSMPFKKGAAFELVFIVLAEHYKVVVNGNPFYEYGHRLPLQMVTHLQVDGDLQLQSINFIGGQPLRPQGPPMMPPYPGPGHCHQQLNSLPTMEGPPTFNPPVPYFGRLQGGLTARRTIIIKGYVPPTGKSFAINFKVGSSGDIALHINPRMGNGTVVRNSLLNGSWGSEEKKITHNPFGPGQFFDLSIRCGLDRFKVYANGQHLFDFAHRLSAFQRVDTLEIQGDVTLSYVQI
Procedure: as §1, §2

Gal-1 = Gal-1 (Homo sapiens, UniProt P09382, C3S)
Procedure: as §1, §2

Gal-8 = biological target: T2, Gal-8 (Homo sapiens, UniProt O00214); settings: competitive ELISA vs immobilized ASF; 0.5 μM Gal-8; at least quadruplicate
T2 construct: Full-length recombinant human galectins (Gal-1, Gal-3, Gal-4, Gal-8, and Gal-9) for ELISA assays; made in house; host or cells: E. coli Rosetta 2(DE3)pLysS
T2 sequence (O00214 1-317): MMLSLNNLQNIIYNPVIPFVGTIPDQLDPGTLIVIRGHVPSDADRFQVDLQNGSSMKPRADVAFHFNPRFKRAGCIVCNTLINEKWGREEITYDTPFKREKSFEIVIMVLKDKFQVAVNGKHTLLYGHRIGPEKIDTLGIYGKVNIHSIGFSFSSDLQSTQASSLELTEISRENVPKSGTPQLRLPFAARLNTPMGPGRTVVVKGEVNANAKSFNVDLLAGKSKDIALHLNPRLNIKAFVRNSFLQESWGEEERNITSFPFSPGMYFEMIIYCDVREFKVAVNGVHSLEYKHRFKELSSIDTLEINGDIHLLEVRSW
Procedure: as §1, §2

Gal-9 = biological target: T3, Gal-9 (Homo sapiens, UniProt O00182, A222P/DEL149-219); settings: competitive ELISA vs immobilized ASF; 0.5 μM Gal-9; at least quadruplicate
T3 construct: Full-length recombinant human galectins (Gal-1, Gal-3, Gal-4, Gal-8, and Gal-9) for ELISA assays; made in house; host or cells: E. coli Rosetta 2(DE3)pLysS
T3 sequence (O00182 with tags, fused parts or gaps DEL149-219/A222P): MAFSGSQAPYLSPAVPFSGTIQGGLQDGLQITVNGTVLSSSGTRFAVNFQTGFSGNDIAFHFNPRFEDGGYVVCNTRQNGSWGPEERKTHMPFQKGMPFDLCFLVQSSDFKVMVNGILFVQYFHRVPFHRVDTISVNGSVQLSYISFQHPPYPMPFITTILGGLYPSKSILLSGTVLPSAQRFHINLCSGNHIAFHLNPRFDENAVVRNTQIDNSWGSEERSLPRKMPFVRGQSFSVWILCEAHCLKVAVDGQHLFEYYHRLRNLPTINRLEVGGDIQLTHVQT
Procedure: as §1, §2

Chain of Gal-3 (P17931 whole entry): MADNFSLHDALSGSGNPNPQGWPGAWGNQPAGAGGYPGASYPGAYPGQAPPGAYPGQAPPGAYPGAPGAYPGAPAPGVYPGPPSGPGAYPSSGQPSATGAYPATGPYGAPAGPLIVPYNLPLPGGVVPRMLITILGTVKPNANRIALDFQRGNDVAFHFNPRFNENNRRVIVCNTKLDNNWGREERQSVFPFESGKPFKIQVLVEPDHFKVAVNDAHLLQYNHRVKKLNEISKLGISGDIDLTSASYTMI
Chain of Gal-1 (P09382 whole entry C3S): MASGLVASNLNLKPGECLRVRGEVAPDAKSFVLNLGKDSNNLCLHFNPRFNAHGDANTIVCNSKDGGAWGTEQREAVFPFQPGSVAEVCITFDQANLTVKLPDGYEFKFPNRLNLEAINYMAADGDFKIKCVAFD

## CC(=O)N[C@H]1[C@H](O[C@H]2[C@@H](O)[C@@H](CO)O[C@@H](O[C@H]3[C@H](O)[C@@H](O)[C@H](NC(=S)NCCNC(=O)OC(C)(C)C)O[C@@H]3CO)[C@@H]2O)O[C@H](CO)[C@@H](O)[C@@H]1O[C@@H]1O[C@H](CO)[C@H](O)[C@H](O)[C@H]1O [Compound 3, (tert-Butoxycarbonylamino)ethylthioureidyl β-D-galactopyranosyl-(1→3)-2-acetamido-2-deoxy-β-D-glucopyranosyl-(1→3)-β-D-galactopyranosyl-(1→4)-β-D-glucopyranoside]
Gal-3
  IC50: 15.2 ± 1 µM
Gal-4
  IC50: 108 ± 16 µM
Gal-1
  IC50: > 500 µM
Gal-8
  IC50: 820 ± 140 µM
Gal-9
  IC50: 230 ± 43 µM

## CC(=O)N[C@H]1[C@H](O[C@H]2[C@@H](O)[C@@H](CO)O[C@@H](O[C@H]3[C@H](O)[C@@H](O)[C@H](NC(=S)NCCNC(=O)OC(C)(C)C)O[C@@H]3CO)[C@@H]2O)O[C@H](CO)[C@@H](O[C@@H]2O[C@H](CO)[C@H](O)[C@H](O)[C@H]2NC(C)=O)[C@@H]1O [Compound 5, (tert-Butoxycarbonylamino)ethylthioureidyl 2-acetamido-2-deoxy-β-D-galactopyranosyl-(1→4)-2-acetamido-2-deoxy-β-D-glucopyranosyl-(1→3)-β-D-galactopyranosyl-(1→4)-2-β-D-glucopyranoside]
Gal-3
  IC50: 2.2 ± 1.3 µM
Gal-4
  IC50: 1620 ± 260 µM
Gal-1
  IC50: 435 ± 102 µM
Gal-8
  IC50: 75 ± 9 µM
Gal-9
  IC50: 326 ± 26 µM

## CC(=O)N[C@@H]1[C@@H](O)[C@H](O[C@@H]2O[C@H](CO)[C@H](O)[C@H](O)[C@H]2O)[C@@H](CO)O[C@H]1NC(=S)NCCNC(=O)OC(C)(C)C [Compound 7, Galβ4GlcNAc-tBoc]
Gal-3
  IC50: 47 ± 6 µM
Gal-4
  IC50: 8630 ± 530 µM
Gal-1
  IC50: 79 ± 9 µM
Gal-8
  IC50: 18700 µM
Gal-9
  IC50: 2840 ± 650 µM

## CC(=O)N[C@@H]1[C@@H](O)[C@H](O[C@@H]2O[C@H](CO)[C@H](O)[C@H](O[C@@H]3O[C@H](CO)[C@@H](O)[C@H](O[C@@H]4O[C@H](CO)[C@H](O)[C@H](O)[C@H]4O)[C@H]3NC(C)=O)[C@H]2O)[C@@H](CO)O[C@H]1NC(=S)NCCNC(=O)OC(C)(C)C [Compound 9, (tert-Butoxycarbonylamino)ethylthioureidyl β-D-galactopyranosyl-(1→3)-2-acetamido-2-deoxy-β-D-glucopyranosyl-(1→3)-β-D-galactopyranosyl-(1→4)-2-acetamido-2-deoxy-β-D-glucopyranoside]
Gal-3; read-out: IC50 Gal-3, Table S9, competitive ELISA vs immobilized ASF, […] Gal-3, unit inferred
  IC50: 27 ± 4 µM
Gal-4
  IC50: 2380 ± 670 µM
Gal-1
  IC50: > 500 µM
Gal-8
  IC50: > 5000 µM
Gal-9
  IC50: > 5000 µM

## CC(=O)N[C@@H]1[C@@H](O)[C@H](O[C@@H]2O[C@H](CO)[C@H](O)[C@H](O[C@@H]3O[C@H](CO)[C@@H](O[C@@H]4O[C@H](CO)[C@H](O)[C@H](O)[C@H]4O)[C@H](O)[C@H]3NC(C)=O)[C@H]2O)[C@@H](CO)O[C@H]1NC(=S)NCCNC(=O)OC(C)(C)C [Compound 10, (tert-Butoxycarbonylamino)ethylthioureidyl β-D-galactopyranosyl-(1→4)-2-acetamido-2-deoxy-β-D-glucopyranosyl-(1→3)-β-D-galactopyranosyl-(1→4)-2-acetamido-2-deoxy-β-D-glucopyranoside]
Gal-3
  IC50: 12 ± 1 µM
Gal-4
  IC50: 2390 ± 490 µM
Gal-1
  IC50: 106 ± 7 µM
Gal-8
  IC50: 406 ± 46 µM
Gal-9
  IC50: 52 ± 23 µM

## CC(=O)N[C@@H]1[C@@H](O)[C@H](O[C@@H]2O[C@H](CO)[C@H](O)[C@H](O[C@@H]3O[C@H](CO)[C@@H](O[C@@H]4O[C@H](CO)[C@H](O)[C@H](O)[C@H]4NC(C)=O)[C@H](O)[C@H]3NC(C)=O)[C@H]2O)[C@@H](CO)O[C@H]1NC(=S)NCCNC(=O)OC(C)(C)C [Compound 11, (tert-Butoxycarbonylamino)ethylthioureidyl 2-acetamido-2-deoxy-β-D-galactopyranosyl-(1→4)-2-acetamido-2-deoxy-β-D-glucopyranosyl-(1→3)-β-D-galactopyranosyl-(1→4)-2-acetamido-2-deoxy-β-D-glucopyranoside]
Gal-3
  IC50: 2.7 ± 2.4 µM
Gal-4
  IC50: 2010 ± 1000 µM
Gal-1
  IC50: 98 ± 22 µM
Gal-8
  IC50: 270 ± 85 µM
Gal-9
  IC50: 260 ± 75 µM
